The target in one test is human A2A receptors (Homo sapiens (Human), UniProt P29274). Nature of the test: A2A antagonism in cAMP cell-based assay (LANCE cAMP, HEK293). As to conditions: HEK293 cells expressing human A2A receptor. Here is the method: (§1) Measurement of A2A and A2B Antagonism in cAMP Cell-Based Assay
(§2) The ability of compounds to antagonize human A2A and A2B adenosine receptors was determined using a kit to measure changes in intracellular cyclic AMP levels (LANCE cAMP 384 Kit, Perkin Elmer, Cat. No. AD0264). HEK293 cells recombinantly expressing either human A2A or A2B receptors, previously frozen in Recovery Medium (Life Technologies, Cat. No. 12648-010) were thawed and diluted into stimulation buffer (HBSS (Hyclone SH 30268.01), 5 mM HEPES (Gibco 15630-106), 200 nM rolipram (Tocris, Cat. No. 0905), and 1.5% (V/v) BSA stabilizer (kit component). The cell suspension was centrifuged at 200×g for 10 min and then resuspended in stimulation buffer, supplemented with a 1:10 000 dilution of Alexa Fluor 647 anti-cAMP antibody, to a density of 6.0×10^5 cells/mL. A Labcyte Echo 550 acoustic dispenser was used to transfer up to 25 nL of test compound dissolved in DMSO into the wells of a dry Optiplate-384 plate (Perkin Elmer, Cat. No. 6008289). All subsequent liquid additions were performed using a multichannel pipettor. Next, 5 μL of the cell suspension was added to the wells of the Optiplate-384 and incubated for 30 min. at 37° C. and 5% CO2 in a humidified environment. After this time 5 μL of either 300 nM or 600 nM adenosine (Sigma Cat. No. A9251) for A2A and A2B respectively was added and incubated for 30 minutes at 37° C. and 5% CO2 in a humidified environment. At this time detection mix was prepared by combining the LANCE Eu-W8044 labeled streptavidin and Biotin-cAMP in detection buffer according to the manufacturers protocol. 10 μL of the detection mix was added to each well of the Optiplate-384 which was covered with a plate seal and incubated under ambient conditions for 2 hours prior to reading the plate using an Envision (Perkin Elmer, Waltham, Mass.) multimode plate reader. Data was normalized by defining minimal effect as stimulation in the presence of 0.25% (v/v) DMSO and maximal effect as stimulation in the presence of 1 μM ZM241385 (Cayman, Cat. No. 1036). Curve fitting of the percent effect data versus the log of compound concentration used a 4-parameter concentration response curve fitting algorithm to calculate IC50 values. Compound concentrations tested were 10,000, 3,333, 1,111, 370.4, 123.4, 41.2, 13.7, 4.6, 1.5 and 0.5 nM with 0.25% residual DMSO.
(In general: In TR-FRET formats the signal depends on donor and acceptor labels being close together.)

The next test has as its target human A2B receptors (Homo sapiens (Human), UniProt P29275). Description: A2B antagonism in cAMP cell-based assay (LANCE cAMP, HEK293). As to conditions: HEK293 cells expressing human A2B receptor. Here is the method: as §1, §2

Some results are limits rather than exact numbers.

Chain of human A2A receptors (P29274 whole entry): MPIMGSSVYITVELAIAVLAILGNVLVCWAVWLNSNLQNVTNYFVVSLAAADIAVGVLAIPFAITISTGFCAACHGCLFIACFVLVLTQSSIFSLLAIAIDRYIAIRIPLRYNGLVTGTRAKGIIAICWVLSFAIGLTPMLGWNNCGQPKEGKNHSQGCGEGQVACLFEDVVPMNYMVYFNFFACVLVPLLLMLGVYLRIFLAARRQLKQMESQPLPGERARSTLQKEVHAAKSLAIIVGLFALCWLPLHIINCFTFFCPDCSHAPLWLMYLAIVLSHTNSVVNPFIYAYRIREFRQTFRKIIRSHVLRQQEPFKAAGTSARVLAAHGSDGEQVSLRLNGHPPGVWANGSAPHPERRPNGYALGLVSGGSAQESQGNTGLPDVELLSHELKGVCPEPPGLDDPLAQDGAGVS
Chain of human A2B receptors (P29275 whole entry): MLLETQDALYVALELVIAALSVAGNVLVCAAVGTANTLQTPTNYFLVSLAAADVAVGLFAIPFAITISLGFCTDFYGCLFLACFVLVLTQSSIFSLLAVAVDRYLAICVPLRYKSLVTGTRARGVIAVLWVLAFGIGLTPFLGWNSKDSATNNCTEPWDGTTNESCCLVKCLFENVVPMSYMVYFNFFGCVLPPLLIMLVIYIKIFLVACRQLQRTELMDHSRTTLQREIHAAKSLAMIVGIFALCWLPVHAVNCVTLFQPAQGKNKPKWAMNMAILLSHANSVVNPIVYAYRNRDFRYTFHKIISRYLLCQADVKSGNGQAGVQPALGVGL

Consider `CC1CC(c2nc3c4cc(F)cc(F)c4nc(N)n3n2)CN(c2cnn(C(C)(C)CO)c2)C1` (single isomer, unassigned) [Example 180, 2-(4-((3R,5R or 3S,5S)-3-(5-amino-7,9-difluoro-[1,2,4]triazolo[1,5-c]quinazolin-2-yl)-5-methylpiperidin-1-yl)-1H-pyrazol-1-yl)-2-methylpropan-1-ol], for which the IC50 (as a rule, the concentration needed to halve the response being measured) against human A2A receptors worked out at 54 nM; against human A2B receptors, 5340 nM.

Take `CC1CC(c2nc3c4cc(F)cc(F)c4nc(N)n3n2)CN(c2cnn(CC(C)(C)O)c2)C1` (single isomer, unassigned) [Example 181, 1-(4-((3S,5S or 3R,5R)-3-(5-amino-7,9-difluoro-[1,2,4]triazolo[1,5-c]quinazolin-2-yl)-5-methylpiperidin-1-yl)-1H-pyrazol-1-yl)-2-methylpropan-2-ol]: the half-maximal inhibitory concentration (IC50) at human A2A receptors was 16 nM; at human A2B receptors, 5100 nM.

As to `CC1CC(c2nc3c4cc(F)cc(F)c4nc(N)n3n2)CN(c2cnn(CC(C)(C)O)c2)C1` (single isomer, unassigned) [Example 182, 1-(4-((3R,5R or 3S,5S)-3-(5-amino-7,9-difluoro-[1,2,4]triazolo[1,5-c]quinazolin-2-yl)-5-methylpiperidin-1-yl)-1H-pyrazol-1-yl)-2-methylpropan-2-ol], the IC50 is 362 nM on human A2A receptors and above 10000 nM against human A2B receptors.

As for `CCC(C)(O)Cn1cc(N2CCC[C@@H](c3nc4c5cc(F)c(OC)cc5nc(N)n4n3)C2)cn1` (single isomer, unassigned) [Example 183, (R or S)-1-(4-((R)-3-(5-amino-9-fluoro-8-methoxy-[1,2,4]triazolo[1,5-c]quinazolin-2-yl)piperidin-1-yl)-1H-pyrazol-1-yl)-2-methylbutan-2-ol], the IC50 on human A2A receptors was 2 nM; on human A2B receptors, 90.6 nM.

In the case of `CCC(C)(O)Cn1cc(N2CCC[C@@H](c3nc4c5cc(F)c(OC)cc5nc(N)n4n3)C2)cn1` (single isomer, unassigned) [Example 184, (S or R)-1-(4-((R)-3-(5-amino-9-fluoro-8-methoxy-[1,2,4]triazolo[1,5-c]quinazolin-2-yl)piperidin-1-yl)-1H-pyrazol-1-yl)-2-methylbutan-2-ol], the IC50 on human A2A receptors was 4.9 nM; against human A2B receptors it was 346 nM.

Turning to `COc1cc(F)cc2c1nc(N)n1nc([C@@H]3CCCN(c4cnn(C(C)C(C)O)c4)C3)nc21` (single isomer, unassigned) [Example 185, (2S,3S or 2R,3R)-3-(4-((R)-3-(5-amino-9-fluoro-7-methoxy-[1,2,4]triazolo[1,5-c]quinazolin-2-yl)piperidin-1-yl)-1H-pyrazol-1-yl)butan-2-ol], the results for the half-maximal inhibitory concentration (IC50) against human A2A receptors and against human A2B receptors were 1.1 nM and 49.8 nM, respectively.

On to `COc1cc(F)cc2c1nc(N)n1nc([C@@H]3CCCN(c4cnn(C(C)C(C)O)c4)C3)nc21` (single isomer, unassigned) [Example 186, (2R,3R or 2S,3S)-3-(4-((R)-3-(5-amino-9-fluoro-7-methoxy-[1,2,4]triazolo[1,5-c]quinazolin-2-yl)piperidin-1-yl)-1H-pyrazol-1-yl)butan-2-ol], for which the concentration for half-maximal inhibition (IC50) at human A2A receptors stood at 1 nM; at human A2B receptors it was 25.8 nM.

Take `COc1cc2nc(N)n3nc([C@@H]4CCCN(c5cnn(C(C)C(C)O)c5)C4)nc3c2cc1F` (single isomer, unassigned) [Example 187, (2S,3S or 2R,3R)-3-(4-((R)-3-(5-amino-9-fluoro-8-methoxy-[1,2,4]triazolo[1,5-c]quinazolin-2-yl)piperidin-1-yl)-1H-pyrazol-1-yl)butan-2-ol]: the results for the half-maximal inhibitory concentration (IC50) on human A2A receptors and at human A2B receptors were 2.6 nM and 95.8 nM, respectively.

`COc1cc2nc(N)n3nc([C@@H]4CCCN(c5cnn(C(C)C(C)O)c5)C4)nc3c2cc1F` (single isomer, unassigned) [Example 188, (2R,3R or 2S,3S)-3-(4-((R)-3-(5-amino-9-fluoro-8-methoxy-[1,2,4]triazolo[1,5-c]quinazolin-2-yl)piperidin-1-yl)-1H-pyrazol-1-yl)butan-2-ol]: the half-maximal inhibitory concentration (IC50) against human A2A receptors came to 1.5 nM; against human A2B receptors, 53.1 nM.

As for `COc1cc(F)cc2c1nc(N)n1nc([C@@H]3CCCN(c4cn(C(C)C(C)O)nc4C)C3)nc21` (single isomer, unassigned) [Example 189, (2S,3S or 2R,3R)-3-(4-((R)-3-(5-amino-9-fluoro-7-methoxy-[1,2,4]triazolo[1,5-c]quinazolin-2-yl)piperidin-1-yl)-3-methyl-1H-pyrazol-1-yl)butan-2-ol], the figures for the half-inhibitory concentration (IC50) at human A2A receptors and against human A2B receptors were 0.5 nM and 53.4 nM, respectively.

Consider `COc1cc(F)cc2c1nc(N)n1nc([C@@H]3CCCN(c4cn(C(C)C(C)O)nc4C)C3)nc21` (single isomer, unassigned) [Example 190], for which the concentration for half-maximal inhibition (IC50) on human A2A receptors stood at 0.8 nM; against human A2B receptors it was 55.9 nM.

Take `Cc1nn(C(C)C(C)O)cc1N1CCC[C@@H](c2nc3c4cc(F)cc(F)c4nc(N)n3n2)C1` (single isomer, unassigned) [Example 191, (2S,3S or 2R,3R)-3-(4-((R)-3-(5-amino-7,9-difluoro-[1,2,4]triazolo[1,5-c]quinazolin-2-yl)piperidin-1-yl)-3-methyl-1H-pyrazol-1-yl)butan-2-ol]: the IC50 at human A2A receptors stood at 0.9 nM; against human A2B receptors it was 92.4 nM.

In the case of `Cc1nn(C(C)C(C)O)cc1N1CCC[C@@H](c2nc3c4cc(F)cc(F)c4nc(N)n3n2)C1` (single isomer, unassigned) [Example 192, (2R,3R or 2S,3S)-3-(4-((R)-3-(5-amino-7,9-difluoro-[1,2,4]triazolo[1,5-c]quinazolin-2-yl)piperidin-1-yl)-3-methyl-1H-pyrazol-1-yl)butan-2-ol], the concentration for half-maximal inhibition (IC50) against human A2A receptors was found to be 0.8 nM; on human A2B receptors, 72.4 nM.

On to `COc1cc(F)cc2c1nc(N)n1nc([C@@H]3CCCN(c4cnn(C(C)C(C)O)c4C)C3)nc21` (single isomer, unassigned) [Example 193, (2S,3S or 2R,3R)-3-(4-((R)-3-(5-amino-9-fluoro-7-methoxy-[1,2,4]triazolo[1,5-c]quinazolin-2-yl)piperidin-1-yl)-5-methyl-1H-pyrazol-1-yl)butan-2-ol], for which the half-maximal inhibitory concentration (IC50) at human A2A receptors came out at 1.3 nM; against human A2B receptors, 251 nM.

For `COc1cc(F)cc2c1nc(N)n1nc([C@@H]3CCCN(c4cnn(C(C)C(C)O)c4C)C3)nc21` (single isomer, unassigned) [Example 194, (2R,3R or 2S,3S)-3-(4-((R)-3-(5-amino-9-fluoro-7-methoxy-[1,2,4]triazolo[1,5-c]quinazolin-2-yl)piperidin-1-yl)-5-methyl-1H-pyrazol-1-yl)butan-2-ol], the results for the IC50 on human A2A receptors and against human A2B receptors were 1.7 nM and 318 nM, respectively.

Regarding `COc1cc2nc(N)n3nc([C@@H]4CCCN(c5cnn(C(C)C(C)O)c5C)C4)nc3c2cc1F` (single isomer, unassigned) [Example 195, (2S,3S or 2R,3R)-3-(4-((R)-3-(5-amino-9-fluoro-8-methoxy-[1,2,4]triazolo[1,5-c]quinazolin-2-yl)piperidin-1-yl)-5-methyl-1H-pyrazol-1-yl)butan-2-ol], the results for the IC50 on human A2A receptors and at human A2B receptors were 3.4 nM and 389 nM, respectively.

As to `COc1cc2nc(N)n3nc([C@@H]4CCCN(c5cnn(C(C)C(C)O)c5C)C4)nc3c2cc1F` (single isomer, unassigned) [Example 196, (2R,3R or 2S,3S)-3-(4-((R)-3-(5-amino-9-fluoro-8-methoxy-[1,2,4]triazolo[1,5-c]quinazolin-2-yl)piperidin-1-yl)-5-methyl-1H-pyrazol-1-yl)butan-2-ol], the 50% inhibitory concentration (IC50) turned out to be 3.7 nM at human A2A receptors and 475 nM against human A2B receptors.

Consider `CC(O)C(C)n1cc(N2CCC[C@@H](c3nc4c5cc(F)cc(F)c5nc(N)n4n3)C2)cn1` (single isomer, unassigned) [Example 197, (2S,3S or 2R,3R)-3-(4-((R)-3-(5-amino-7,9-difluoro-[1,2,4]triazolo[1,5-c]quinazolin-2-yl)piperidin-1-yl)-1H-pyrazol-1-yl)butan-2-ol], for which the IC50 on human A2A receptors is 6.4 nM; against human A2B receptors, 93 nM.

Regarding `CC(O)C(C)n1cc(N2CCC[C@@H](c3nc4c5cc(F)cc(F)c5nc(N)n4n3)C2)cn1` (single isomer, unassigned) [Example 198, (2R,3R or 2S,3S)-3-(4-((R)-3-(5-amino-7,9-difluoro-[1,2,4]triazolo[1,5-c]quinazolin-2-yl)piperidin-1-yl)-1H-pyrazol-1-yl)butan-2-ol], the values for the IC50 at human A2A receptors and against human A2B receptors were 4.3 nM and 52.4 nM, respectively.

The record behind these values is patent US11312719B2, “9-substituted amino triazolo quinazoline derivatives as adenosine receptor antagonists, pharmaceutical compositions and their use” (Merck Sharp & Dohme Corp., priority 2018, dated 2022).
